Like-named read-outs stand apart in the source and are kept apart here. Values belong to the substance of their own block, whether it stands above or below them.
Key:
[1] = cited from earlier work
Description: Table 3 Absorbed kidney dose and effective dose of ^18F-labeled tracer and metal-labeled exendin PET and SPECT tracers | column: Kidney dose [mSv/MBq]; Effective dose [mSv/MBq]

[2] = design: method as in PMID 12629557; settings: rat; cited from earlier work
[3] = biological target: T1, GLP-1R-rich areas from rat brain (Rattus norvegicus, UniProt P32301); assay: In vitro binding in rat brain sections (autoradiography); settings: lateral septum, 1.25 nM (Fig. 7)
T1 construct: We dissected a rat pancreas and brain and froze them immediately after dissection; from tissue; host or cells: rat brain (GLP-1R-rich areas): in vivo injection with ex vivo read-out, and frozen sections in vitro
T1 sequence (P32301 22-463): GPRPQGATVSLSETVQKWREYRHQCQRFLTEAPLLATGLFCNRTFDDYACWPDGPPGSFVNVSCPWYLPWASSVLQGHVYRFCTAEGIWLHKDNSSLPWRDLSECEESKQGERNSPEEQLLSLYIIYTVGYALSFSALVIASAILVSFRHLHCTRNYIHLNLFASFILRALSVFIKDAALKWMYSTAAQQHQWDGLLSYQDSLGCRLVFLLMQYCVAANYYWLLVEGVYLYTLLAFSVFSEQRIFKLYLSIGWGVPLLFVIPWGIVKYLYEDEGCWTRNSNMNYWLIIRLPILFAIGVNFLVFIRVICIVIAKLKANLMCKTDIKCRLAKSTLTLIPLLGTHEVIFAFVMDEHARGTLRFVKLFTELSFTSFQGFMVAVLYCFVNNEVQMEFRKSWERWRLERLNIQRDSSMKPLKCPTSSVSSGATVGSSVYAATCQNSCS
Method: We acquired a piece of human pancreas that was frozen immediately after surgery. We dissected a rat pancreas and brain and froze them immediately after dissection. Prior to incubations with ligand, the tissue sections of human and rat pancreas and GLP-1R-rich areas from rat brain [19] were incubated for 30 min with 1% BSA in PBS (pH 7.4). […] To investigate tracer specificity, sections were incubated for 30 min with an excess of cold exendin-3 prior to adding [^18F]exendin-4. Sections were then washed and exposed to imaging plates, as described above (ex vivo autoradiography). Next, sections were stained and processed, as described above.

[4] = biological target: T2, GLP-1R in the islets (Homo sapiens, UniProt P43220); assay: In vitro binding in human pancreas sections (autoradiography); settings: human pancreatic tissue sections
T2 construct: We acquired a piece of human pancreas that was frozen immediately after surgery; from tissue; host or cells: human pancreas, frozen surgical specimen, sections
T2 sequence (P43220 24-463): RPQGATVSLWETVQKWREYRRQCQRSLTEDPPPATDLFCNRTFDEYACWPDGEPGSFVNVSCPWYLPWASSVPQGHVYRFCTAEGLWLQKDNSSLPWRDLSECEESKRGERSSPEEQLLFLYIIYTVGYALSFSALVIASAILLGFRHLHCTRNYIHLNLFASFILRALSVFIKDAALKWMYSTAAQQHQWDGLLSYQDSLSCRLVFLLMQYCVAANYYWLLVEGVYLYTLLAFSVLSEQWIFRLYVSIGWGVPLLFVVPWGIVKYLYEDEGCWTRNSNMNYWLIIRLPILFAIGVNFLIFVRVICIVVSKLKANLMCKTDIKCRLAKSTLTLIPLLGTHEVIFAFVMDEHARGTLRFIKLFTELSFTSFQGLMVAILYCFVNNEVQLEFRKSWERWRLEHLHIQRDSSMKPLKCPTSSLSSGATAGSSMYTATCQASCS
Method: (§1) We acquired a piece of human pancreas that was frozen immediately after surgery. We dissected a rat pancreas and brain and froze them immediately after dissection. Prior to incubations with ligand, the tissue sections of human and rat pancreas and GLP-1R-rich areas from rat brain [19] were incubated for 30 min with 1% BSA in PBS (pH 7.4). Then, sections were incubated for 60 min with various concentrations of [^18F]exendin-4 (range 2.5–20 nM) in vitro. To investigate tracer specificity, sections were incubated for 30 min with an excess of cold exendin-3 prior to adding [^18F]exendin-4. Sections were then washed and exposed to imaging plates, as described above (ex vivo autoradiography). Next, sections were stained and processed, as described above.

[5] = design: species or system human
Method: Absorbed doses were calculated with OLINDA/EXM1.0 software, which includes radionuclide information and a selection of human body phantoms. Rat ex vivo biodistributions were estimated by integrating the area under the time–activity curves. The obtained residence times were converted into corresponding human values by multiplying with organ-specific factors that scaled organs to body weights, as follows: (W TB,rat/W Organ,rat) × (W Organ,human/W TB,human), where W TB,rat and W TB,human are the total body weights of rats and humans (70-kg male), respectively; and W Organ,rat and W Organ,human are the organ weights of rats and humans (70-kg male), respectively.

[6] = biological target: T3, GLP1-R-rich areas of rat brain (Rattus norvegicus, UniProt P32301); settings: in vivo
T3 construct: We dissected a rat pancreas and brain and froze them immediately after dissection; from tissue; host or cells: rat brain (GLP-1R-rich areas): in vivo injection with ex vivo read-out, and frozen sections in vitro
T3 sequence (P32301 22-463): T1 sequence (P32301 22-463)
Method: The in vivo kinetics of [^18F]exendin-4 were evaluated with the Inveon Multimodality PET/CT scanner (Siemens, Knoxville, TN, USA). Rats were anesthetized with isoflurane/O2 and injected intravenously (i.v.) with [^18F]exendin-4 (radioactivity 23 ± 5 MBq/kg, mass 2 ± 1 μg/kg). PET scans were acquired for up to 6 h (dynamic 0–60 min; static 210–240 min and 330–360 min; N = 2–5 rats/scan). The data were reconstructed with the ordered subset expectation maximization OSEM2D algorithm. Analyses were performed with Inveon Research Workplace 3 software (Siemens), after defining the volumes of interest (VOIs) on selected tissues.
Rats were anesthetized with isoflurane/O2 and injected (i.v.) with [^18F]exendin-4 (radioactivity 23 ± 5 MBq/kg, mass 2 ± 1 μg/kg). […] Tissue radioactivity was measured with a γ-counter (Wizard, PerkinElmer, Turku, Finland). […] Measurements were corrected for radionuclide decay, and results were reported as the percentage of the injected dose of radioactivity per gram of tissue (%ID/g).
The kidney, pancreas, and brain were sectioned and exposed to imaging plates (Fuji BAS-TR2025; Fuji Photo Film Co., Tokyo, Japan) for approximately 4 h. Imaging plates were scanned with a BAS-5000 scanner (Fuji Photo Film Co.) and the images were analyzed with AIDA 4.5 software (Raytest, Isotopenmessgeräte, Straubenhardt, Germany). […] Finally, the islet-to-exocrine tissue ratio was calculated. […]

[7] = pig, in vivo
Method: In addition, the stability of [^18F]exendin-4 was determined in pig plasma. Prior to blood sampling, animals were anesthetized (midazolam 1 mg/kg, xylazine 4 mg/kg intramuscular), connected to a respirator, and ventilated mechanically. Anesthesia was maintained with an i.v. infusion of propofol (10–20 mg/kg/h) and fentanyl (4–8 μg/kg/h). Vital signs were monitored throughout the study. Pigs were injected (radioactivity 1.2 ± 0.2 MBq/kg, mass 0.14 ± 0.04 μg/kg) and blood was sampled at 5, 15, 30, 60, and 180 min p.i. (N = 3 samples/time point). Plasma was treated and analyzed as described above.

[8] = biological target: T4, GLP-1R in pancreatic islets (Rattus norvegicus, UniProt P32301); assay: In vitro binding in rat pancreas sections (autoradiography)
T4 construct: We dissected a rat pancreas and brain and froze them immediately after dissection; from tissue; host or cells: rat pancreas (islets): in vivo injection followed by ex vivo autoradiography, and frozen sections in vitro
T4 sequence (P32301 22-463): T1 sequence (P32301 22-463)
Method: as §1

[9] = biological target: T5, GLP-1R in the islets (Rattus norvegicus, UniProt P32301); assay: Ex vivo autoradiography of rat pancreas; type: in vivo
T5 construct: We dissected a rat pancreas and brain and froze them immediately after dissection; from tissue; host or cells: rat pancreas (islets): in vivo injection followed by ex vivo autoradiography, and frozen sections in vitro
T5 sequence (P32301 22-463): T1 sequence (P32301 22-463)
Method: Rats were anesthetized with isoflurane/O2 and injected (i.v.) with [^18F]exendin-4 (radioactivity 23 ± 5 MBq/kg, mass 2 ± 1 μg/kg). After injection, animals were allowed to recover from the anesthesia (except animal sacrificed 15 min p.i.). We further investigated tracer distribution in the brain by injecting one rat with a highly radioactive dose (50 MBq) of [^18F]exendin-4. Animals were sacrificed at 15, 30, 60, 120, 240, and 360 min (N = 2–11 rats/time point). Blood was extracted, and selected organs were dissected and weighed. Tissue radioactivity was measured with a γ-counter (Wizard, PerkinElmer, Turku, Finland). Tracer specificity was tested by co-injecting radiolabeled exendin-4 with an excess of cold exendin-3 (3 mg/kg) (Peptide Specialty Laboratories GmbH). Measurements were corrected for radionuclide decay, and results were reported as the percentage of the injected dose of radioactivity per gram of tissue (%ID/g).
The kidney, pancreas, and brain were sectioned and exposed to imaging plates (Fuji BAS-TR2025; Fuji Photo Film Co., Tokyo, Japan) for approximately 4 h. Imaging plates were scanned with a BAS-5000 scanner (Fuji Photo Film Co.) and the images were analyzed with AIDA 4.5 software (Raytest, Isotopenmessgeräte, Straubenhardt, Germany). Three pancreatic sections per rat were analyzed (N = 2–8 rats/time point). We determined the mean density values (photostimulated luminescence per square millimeter, PSL/mm^2) of ten prominently labeled islets and of the exocrine tissue and corrected for background noise. Finally, the islet-to-exocrine tissue ratio was calculated. […] The pancreatic sections used for autoradiography were then stained with insulin antibody (1’ mouse-anti-insulin, Nordic Biosite, Täby, Sweden, 2’ MAHC1 mouse probe, Biocare Medical, Concord, CA, USA), counterstained with hematoxylin, and imaged with a Slide Scanner (Pannoramic 250 F, 3DHistech, Budapest, Hungary).

Substance: [^64Cu]NODAGA-exendin-4: metal-labeled exendin PET tracer, ref 3
Effective dose [1]: 0.074 mSv/MBq | Kidney dose [1]: 1.48 mSv/MBq

Substance: exendin-4
blood–brain barrier crossing [2]: crossed the blood–brain barrier

Substance: [^111In]DTPA-exendin-4: metal-labeled exendin SPECT tracer
Effective dose [1]: 0.155 mSv/MBq | Kidney dose [1]: 4.48 mSv/MBq

labeling of GLP-1R areas in brain in vitro [3]: clearly labeled | tracer binding in human pancreatic islets with blocking ([4]; excess cold exendin-3 added): no [^18F]exendin-4 binding was observed | tracer binding in human pancreatic islets ([4]; various concentrations (2.5–20 nM), 60 min, autoradiography, verified by insulin immunostaining): clearly visible | Effective dose [5]: 0.021 mSv/MBq | absorbed radiation dose, LLI (lower large intestine) wall [5]: 0.003 mSv/MBq | absorbed radiation dose, ULI (upper large intestine) wall [5]: 0.005 mSv/MBq | absorbed radiation dose, adrenal glands [5]: 0.016 mSv/MBq | absorbed radiation dose, brain [5]: 0.004 mSv/MBq | absorbed radiation dose, breasts [5]: 0.004 mSv/MBq | absorbed radiation dose, gallbladder wall [5]: 0.011 mSv/MBq | absorbed radiation dose, heart wall [5]: 0.010 mSv/MBq | absorbed radiation dose, liver [5]: 0.026 mSv/MBq | absorbed radiation dose, lungs [5]: 0.071 mSv/MBq | absorbed radiation dose, muscle [5]: 0.005 mSv/MBq | absorbed radiation dose, osteogenic cells [5]: 0.045 mSv/MBq | absorbed radiation dose, ovaries [5]: 0.003 mSv/MBq | absorbed radiation dose, pancreas [5]: 0.023 mSv/MBq | absorbed radiation dose, red bone marrow [5]: 0.009 mSv/MBq | absorbed radiation dose, skin [5]: 0.003 mSv/MBq | absorbed radiation dose, small intestine [5]: 0.005 mSv/MBq | absorbed radiation dose, spleen [5]: 0.022 mSv/MBq | absorbed radiation dose, stomach wall [5]: 0.007 mSv/MBq | absorbed radiation dose, testes [5]: 0.001 mSv/MBq | absorbed radiation dose, thymus [5]: 0.005 mSv/MBq | absorbed radiation dose, thyroid [5]: 0.003 mSv/MBq | absorbed radiation dose, total body [5]: 0.009 mSv/MBq | absorbed radiation dose, urinary bladder wall [5]: 0.002 mSv/MBq | absorbed radiation dose, uterus [5]: 0.003 mSv/MBq | blood–brain barrier crossing [6]: did not cross the blood–brain barrier | body temperature after administration [7]: 41 °C | islet labeling in vitro ([8]; 60 min incubation, 2.5 nM (Fig. 6), autoradiography): islet labeling was observed | islet labeling in vitro with blocking ([8]; excess of cold exendin-3 added): not detected | islet labeling with blocking ([9]; co-injected with excess cold exendin-3, ex vivo autoradiography): not visible | islet-to-exocrine tissue ratio ([9]; ex vivo autoradiography, PSL/mm^2 of ten islets vs exocrine tissue, N = 2–8 rats/time point): increased over time | tracer uptake in pancreatic islets ([9]; i.v., ex vivo autoradiography, 60 min p.i. (Fig. 5a), verified by insulin staining): tracer uptake was observed
Substance: ^18F-labeled [Nle^14,Lys^40]exendin-4 [[^18F]exendin-4]
arrhythmia after administration [7]: arrhythmia was observed | blood pressure after administration [7]: decreased | heart rate after administration [7]: 230–250 beats/min
